The values below come from EP0013742A1, “Substituted sulfonic acid anilides, their preparation and use” (BASF Aktiengesellschaft, priority 1979, dated 1980).

In one assay the test system is Rasen. The assay is described as follows: Effect on grass/lawn, vegetation test in Mitscherlich pots (Beispiel B). The note with it: for 1. Schnitt Pflanzenhöhe relativ / 1. Schnitt Pflanzenhöhe cm: 20 days after treatment; for 1. Schnitt Pflanzenhöhe relativ / 2. Schnitt Pflanzenhöhe relativ: untreated control = 100; for 2. Schnitt Pflanzenhöhe cm: regrowth over 4 weeks after 1st cut (after-effect); for 2. Schnitt Pflanzenhöhe relativ: regrowth over 4 weeks after 1st cut; for 1. Schnitt Pflanzenhöhe cm: sprayed at 4 cm height. In kind it is in vivo. The source says:
In einem Vegetationsversuch in Mitscherlichgefäßen wurde auf einem lehmigen Sandboden Rasen der folgenden Standard--Mischung angesät: Agrostis tenuis 10 %, Cynosurus cristatus 10 %, Festuca rubra 15 %, Lolium perenne 35 % und Poa pratensis 30 %. Die Düngung wurde mit 1,5 g N als Ammonnitrat und 1 ^g P205 als sec. Kaliumphosphat vorgenommen. Nach 2 vorangegangenen Schnitten wurden die Wirkstoffe in verschiedenen Aufwandmengen bei einer Wuchshöhe von 4 cm in üblicher Weise gespritzt. 20 Tage nach der Behandlung wurde die Wuchshöhe bestimmt; nach erfolgtem 1. Schnitt wurde der Wiederaufwuchs über 4 Wochen bis hin zum 2. Schnitt beobachtet und ebenfalls Längenmessungen durchgeführt, um die Nachwirkung zu überprüfen. Gegenüber der Kontrolle reagierten die Pflanzen aus den Behandlungsreihen mit sehr starken Kürzungen. Die Nachwirkung ist besser zu beurteilen als bei der zum Vergleich herangezogenen bekannten Substanz, wie nachstehende Tabelle zeigt.

Another assay concerns Sommerweizen (Kolibri). The assay can be described thus: Growth height reduction in cereals, greenhouse, foliar spray (Beispiel A). The note with it: 18 days growth; for Pflanzenhöhe cm: sprayed at 10 cm plant height, 100 plants measured; for Pflanzenhöhe relativ: untreated control = 100. In kind it is in vivo, Weizen (Kolibri). From the text:
(§1) Im Gewächshaus wurden die Getreidearten Weizen (Kolibri) und Gerste (Union) in Kunststoffschalen von 11,5 cm Durch- messer in Torfkultursubstrat, welches ausreichend mit Nährstoffen versorgt war, eingesät. Die Wirkstoffe wurden in unterschiedlichen Aufwandmengen über das Blatt zugeführt. Die Applikation erfolgte bei einer Wuchshöhe der Pflanzen von 10 cm in üblicher Weise durch Spritzen.
(§2) Während der Wachstumszeit von 18 Tagen zeigten die behandelten Pflanzen gegenüber der unbehandelten Kontrolle ein deutlich geringeres Längenwachstum, was durch die abschließenden Längenmessungen bestätigt werden konnte. Hierbei wurden von jeder Behandlungsreihe 100 Pflanzen gemessen.

The test system of another assay is Sommergerste (Union). The assay is described as above. It counts as in vivo, Gerste (Union). Particulars: for Pflanzenhöhe cm: sprayed at 10 cm plant height, 18 days growth; for Pflanzenhöhe relativ: untreated control = 100.
Description: as §1, §2

As to `CC(=O)Nc1cc(N(C#N)S(=O)(=O)C(F)(F)F)c(C)cc1C` [Beispiel 1, 5-Acetamido-N -cyano-2,4-dimethyl-trifluormethansulfonsäureanilid], in the assay with Rasen (Aufwandmenge 0,5 kg/ha), the “1. Schnitt Pflanzenhöhe relativ” value was 38,5, the “2. Schnitt Pflanzenhöhe cm” value is on record as 8,0 cm, the “2. Schnitt Pflanzenhöhe relativ” value is on record as 72,7 and the “1. Schnitt Pflanzenhöhe cm” value is listed as 5,5 cm. Besides, in the assay with Rasen (Aufwandmenge 0,75 kg/ha), the “1. Schnitt Pflanzenhöhe relativ” value is 31,5, the “2. Schnitt Pflanzenhöhe cm” value is 7,0 cm, the “2. Schnitt Pflanzenhöhe relativ” value is on record as 63,6 and the “1. Schnitt Pflanzenhöhe cm” value is 4,5 cm. In the assay on Sommerweizen (Kolibri) (Aufwandmenge 1,5 kg/ha), the Pflanzenhöhe cm is on record as 13,0 cm and the Pflanzenhöhe relativ is listed as 48,5. Further, in the assay with Sommerweizen (Kolibri) (Aufwandmenge 6,0 kg/ha), the Pflanzenhöhe cm is 12,6 cm and the Pflanzenhöhe relativ was 46,6.
Consider `CC(=O)Nc1ccc(C)c(N(C#N)S(=O)(=O)C(F)(F)F)c1` [Beispiel 67], for which, in the assay with Rasen (Aufwandmenge 0,5 kg/ha), the “1. Schnitt Pflanzenhöhe relativ” value is 97,4, the “2. Schnitt Pflanzenhöhe cm” value is listed as 11,0 cm, the “2. Schnitt Pflanzenhöhe relativ” value is given as 100 and the “1. Schnitt Pflanzenhöhe cm” value is recorded as 14,0 cm. In the assay with Rasen (Aufwandmenge 0,75 kg/ha), the “1. Schnitt Pflanzenhöhe relativ” value is 87,4, the “2. Schnitt Pflanzenhöhe cm” value is given as 9,0 cm, the “2. Schnitt Pflanzenhöhe relativ” value is recorded as 81,8 and the “1. Schnitt Pflanzenhöhe cm” value is reported as 12,5 cm. In the assay on Sommerweizen (Kolibri) (Aufwandmenge 1,5 kg/ha), the Pflanzenhöhe cm is recorded as 13,5 cm and the Pflanzenhöhe relativ was 50,4. Moreover, in the assay with Sommerweizen (Kolibri) (Aufwandmenge 6,0 kg/ha), the Pflanzenhöhe cm is reported as 12,0 cm and the Pflanzenhöhe relativ is 44,8.
Consider `CC(=O)Nc1ccc(C)c(NS(=O)(=O)C(F)(F)F)c1` [Fluoridamid, 5-Acetam.ido-2-methyl-trifluormethansulfonsäureanilid, reference compound], for which, in the assay on Rasen (Aufwandmenge 0,5 kg/ha), the “1. Schnitt Pflanzenhöhe relativ” value is 94,4, the “2. Schnitt Pflanzenhöhe cm” value is 11,0 cm, the “2. Schnitt Pflanzenhöhe relativ” value stood at 100 and the “1. Schnitt Pflanzenhöhe cm” value is 13,5 cm. For the same compound, in the assay on Rasen (Aufwandmenge 0,75 kg/ha), the “1. Schnitt Pflanzenhöhe relativ” value is 87,4, the “2. Schnitt Pflanzenhöhe cm” value is on record as 10,0 cm, the “2. Schnitt Pflanzenhöhe relativ” value is given as 90,9 and the “1. Schnitt Pflanzenhöhe cm” value is 12,5 cm. In addition, in the assay on Sommerweizen (Kolibri) (Aufwandmenge 1,5 kg/ha), the Pflanzenhöhe cm is on record as 17,0 cm and the Pflanzenhöhe relativ was 63,4. Besides, in the assay on Sommerweizen (Kolibri) (Aufwandmenge 6,0 kg/ha), the Pflanzenhöhe cm is given as 15,0 cm and the Pflanzenhöhe relativ is given as 56,0.
On to `CC(=O)Nc1cc(NS(=O)(=O)C(F)(F)F)c(C)cc1C` [Mefluidide, 5-Acetamido-2,4--dimethyl-trifluormethansulfonsäureanilid], for which the Pflanzenhöhe cm is listed as 27,0 cm in the assay on Sommergerste (Union) (Aufwandmenge 0,25 kg/ha), 18,0 cm in the assay on Sommergerste (Union) (Aufwandmenge 0,75 kg/ha), 17,5 cm in the assay on Sommergerste (Union) (Aufwandmenge 1,50 kg/ha) and 16,0 cm in the assay with Sommergerste (Union) (Aufwandmenge 3,00 kg/ha). In addition, the Pflanzenhöhe relativ in the assay with Sommergerste (Union) (Aufwandmenge 0,25 kg/ha) is reported as 96,4; in the assay on Sommergerste (Union) (Aufwandmenge 0,75 kg/ha), 64,3; in the assay with Sommergerste (Union) (Aufwandmenge 1,50 kg/ha), 62,5; with Sommergerste (Union) (Aufwandmenge 3,00 kg/ha), 57,1.
